{
  "source": "ChEMBL document CHEMBL5465560",
  "about": "“Selectivity Literature for EUbOPEN Chemogenomic Library” (2024)",
  "key": {"[1]": {"biological_target": "LIM domain kinase 2 (Homo sapiens) (UniProt P53671)", "sequence (P53671 whole entry, looked up, the tested form may be a part)": "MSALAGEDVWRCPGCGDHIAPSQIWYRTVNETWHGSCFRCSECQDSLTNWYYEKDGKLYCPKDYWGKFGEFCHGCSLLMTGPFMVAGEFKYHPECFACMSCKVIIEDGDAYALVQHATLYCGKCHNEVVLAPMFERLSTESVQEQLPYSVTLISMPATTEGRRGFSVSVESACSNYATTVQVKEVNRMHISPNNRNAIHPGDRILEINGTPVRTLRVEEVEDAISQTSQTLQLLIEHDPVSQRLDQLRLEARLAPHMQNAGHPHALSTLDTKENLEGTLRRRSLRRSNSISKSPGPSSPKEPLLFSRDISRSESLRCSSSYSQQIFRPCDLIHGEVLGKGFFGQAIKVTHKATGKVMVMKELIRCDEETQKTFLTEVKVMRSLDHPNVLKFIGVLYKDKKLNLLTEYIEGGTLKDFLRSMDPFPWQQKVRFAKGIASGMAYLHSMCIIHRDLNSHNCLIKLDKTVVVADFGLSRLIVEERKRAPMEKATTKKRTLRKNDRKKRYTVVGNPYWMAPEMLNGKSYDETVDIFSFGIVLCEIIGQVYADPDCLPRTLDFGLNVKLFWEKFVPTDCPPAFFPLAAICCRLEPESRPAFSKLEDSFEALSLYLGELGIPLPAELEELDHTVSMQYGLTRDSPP", "settings": "at 10 µM"}, "[2]": {"biological_target": "T1, Cyclin-dependent kinase 11A (Homo sapiens) (UniProt Q9UQ88)", "T1 sequence (whole entry)": "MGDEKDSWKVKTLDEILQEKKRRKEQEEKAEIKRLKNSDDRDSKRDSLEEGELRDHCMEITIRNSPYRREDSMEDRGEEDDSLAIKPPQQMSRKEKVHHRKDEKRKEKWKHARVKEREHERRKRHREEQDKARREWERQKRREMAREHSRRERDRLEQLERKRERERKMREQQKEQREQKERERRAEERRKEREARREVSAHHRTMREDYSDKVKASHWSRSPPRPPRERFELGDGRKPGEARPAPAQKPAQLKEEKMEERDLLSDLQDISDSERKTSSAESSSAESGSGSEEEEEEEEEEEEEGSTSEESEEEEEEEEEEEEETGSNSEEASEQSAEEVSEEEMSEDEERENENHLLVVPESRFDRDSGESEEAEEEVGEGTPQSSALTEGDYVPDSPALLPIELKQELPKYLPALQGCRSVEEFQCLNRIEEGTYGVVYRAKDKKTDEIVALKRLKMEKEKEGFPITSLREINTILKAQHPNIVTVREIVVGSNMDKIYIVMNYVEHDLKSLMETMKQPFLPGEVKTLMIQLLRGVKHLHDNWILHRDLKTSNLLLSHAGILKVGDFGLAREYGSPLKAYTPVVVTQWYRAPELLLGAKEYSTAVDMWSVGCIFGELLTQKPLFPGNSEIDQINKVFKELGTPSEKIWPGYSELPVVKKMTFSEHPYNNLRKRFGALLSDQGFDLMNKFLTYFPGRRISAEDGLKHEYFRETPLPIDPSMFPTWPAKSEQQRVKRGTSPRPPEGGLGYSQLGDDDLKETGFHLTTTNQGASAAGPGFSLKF", "test": "Selectivity interaction (KinomeScan (DiscoverX)) EUB0000666a CDK11A", "settings": "at 10 µM"}, "[3]": {"biological_target": "Serine/threonine-protein kinase MRCK alpha (Homo sapiens) (UniProt Q5VT25)", "sequence (Q5VT25 whole entry)": "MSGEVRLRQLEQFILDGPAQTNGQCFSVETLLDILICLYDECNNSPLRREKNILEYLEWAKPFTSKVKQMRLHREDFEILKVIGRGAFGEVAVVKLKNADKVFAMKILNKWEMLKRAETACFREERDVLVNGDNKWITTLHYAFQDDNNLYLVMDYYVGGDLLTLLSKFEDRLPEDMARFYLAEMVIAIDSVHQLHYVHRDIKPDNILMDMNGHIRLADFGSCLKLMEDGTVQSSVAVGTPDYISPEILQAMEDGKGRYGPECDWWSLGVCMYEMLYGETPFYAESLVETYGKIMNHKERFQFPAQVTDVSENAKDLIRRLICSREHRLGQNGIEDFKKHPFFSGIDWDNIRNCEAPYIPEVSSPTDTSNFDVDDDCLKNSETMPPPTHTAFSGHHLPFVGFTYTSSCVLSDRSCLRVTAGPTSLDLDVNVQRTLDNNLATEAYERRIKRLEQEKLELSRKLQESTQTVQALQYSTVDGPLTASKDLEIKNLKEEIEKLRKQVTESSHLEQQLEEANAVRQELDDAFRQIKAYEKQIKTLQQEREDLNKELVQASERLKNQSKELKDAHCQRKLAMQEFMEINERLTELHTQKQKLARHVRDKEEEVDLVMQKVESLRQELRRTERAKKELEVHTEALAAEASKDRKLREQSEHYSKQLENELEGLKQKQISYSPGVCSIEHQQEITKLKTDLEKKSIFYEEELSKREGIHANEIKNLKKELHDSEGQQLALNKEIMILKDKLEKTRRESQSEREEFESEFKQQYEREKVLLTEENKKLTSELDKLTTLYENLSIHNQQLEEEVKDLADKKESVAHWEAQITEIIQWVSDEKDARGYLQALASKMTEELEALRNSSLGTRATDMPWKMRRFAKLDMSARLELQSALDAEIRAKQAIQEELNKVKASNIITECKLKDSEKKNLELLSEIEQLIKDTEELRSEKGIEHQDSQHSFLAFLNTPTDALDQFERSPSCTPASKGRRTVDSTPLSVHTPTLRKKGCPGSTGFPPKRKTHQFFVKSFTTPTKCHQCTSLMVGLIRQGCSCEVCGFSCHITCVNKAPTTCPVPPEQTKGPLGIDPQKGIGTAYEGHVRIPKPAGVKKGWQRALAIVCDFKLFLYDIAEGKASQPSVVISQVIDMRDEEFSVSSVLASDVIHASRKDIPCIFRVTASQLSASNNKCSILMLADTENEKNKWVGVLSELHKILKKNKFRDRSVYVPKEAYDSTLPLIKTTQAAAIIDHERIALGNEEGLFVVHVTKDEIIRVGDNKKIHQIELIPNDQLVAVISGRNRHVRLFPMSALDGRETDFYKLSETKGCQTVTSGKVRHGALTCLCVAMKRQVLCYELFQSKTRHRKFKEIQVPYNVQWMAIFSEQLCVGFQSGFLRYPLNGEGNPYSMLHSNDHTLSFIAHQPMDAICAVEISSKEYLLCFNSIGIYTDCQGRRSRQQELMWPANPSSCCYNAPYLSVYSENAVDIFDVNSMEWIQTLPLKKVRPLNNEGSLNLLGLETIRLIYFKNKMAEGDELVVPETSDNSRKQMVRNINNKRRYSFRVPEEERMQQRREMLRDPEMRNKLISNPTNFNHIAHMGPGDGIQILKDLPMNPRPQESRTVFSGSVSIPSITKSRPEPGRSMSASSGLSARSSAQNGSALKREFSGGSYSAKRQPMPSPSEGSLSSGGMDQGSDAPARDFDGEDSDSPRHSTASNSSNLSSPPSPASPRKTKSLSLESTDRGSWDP", "test": "Selectivity interaction (KinomeScan (DiscoverX)) EUB0000666a CDC42BPA", "settings": "at 10 µM"}, "[4]": {"biological_target": "T2, Mitogen-activated protein kinase kinase kinase 13 (Homo sapiens) (UniProt O43283)", "T2 sequence (whole entry)": "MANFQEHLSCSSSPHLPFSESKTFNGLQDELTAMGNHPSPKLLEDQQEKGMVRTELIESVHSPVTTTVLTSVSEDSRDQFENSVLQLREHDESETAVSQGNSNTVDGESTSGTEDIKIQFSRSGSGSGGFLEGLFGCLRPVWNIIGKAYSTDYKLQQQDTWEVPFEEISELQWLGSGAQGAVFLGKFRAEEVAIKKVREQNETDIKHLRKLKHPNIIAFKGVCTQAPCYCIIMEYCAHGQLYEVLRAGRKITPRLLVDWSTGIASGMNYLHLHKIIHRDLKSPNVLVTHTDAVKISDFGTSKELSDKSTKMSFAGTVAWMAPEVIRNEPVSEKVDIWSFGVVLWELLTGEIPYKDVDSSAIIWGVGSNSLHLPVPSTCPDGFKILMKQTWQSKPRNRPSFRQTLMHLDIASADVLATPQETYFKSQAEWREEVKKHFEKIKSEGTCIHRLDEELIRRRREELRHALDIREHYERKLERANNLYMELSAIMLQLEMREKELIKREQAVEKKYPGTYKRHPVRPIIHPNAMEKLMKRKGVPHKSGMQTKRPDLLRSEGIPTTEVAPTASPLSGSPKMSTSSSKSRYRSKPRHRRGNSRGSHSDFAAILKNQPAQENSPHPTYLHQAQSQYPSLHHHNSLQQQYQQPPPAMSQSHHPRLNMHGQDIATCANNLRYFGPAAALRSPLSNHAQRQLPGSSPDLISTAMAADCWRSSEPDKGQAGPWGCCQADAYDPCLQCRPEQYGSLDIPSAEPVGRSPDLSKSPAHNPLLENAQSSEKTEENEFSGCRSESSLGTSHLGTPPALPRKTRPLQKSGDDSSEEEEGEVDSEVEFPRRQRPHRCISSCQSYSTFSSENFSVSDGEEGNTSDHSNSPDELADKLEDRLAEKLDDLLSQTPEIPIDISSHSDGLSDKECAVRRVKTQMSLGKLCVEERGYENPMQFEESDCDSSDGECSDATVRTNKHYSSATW", "settings": "at 10 µM"}, "[5]": {"biological_target": "T3, Serine/threonine-protein kinase Sgk3 (Homo sapiens) (UniProt Q96BR1)", "T3 sequence (whole entry)": "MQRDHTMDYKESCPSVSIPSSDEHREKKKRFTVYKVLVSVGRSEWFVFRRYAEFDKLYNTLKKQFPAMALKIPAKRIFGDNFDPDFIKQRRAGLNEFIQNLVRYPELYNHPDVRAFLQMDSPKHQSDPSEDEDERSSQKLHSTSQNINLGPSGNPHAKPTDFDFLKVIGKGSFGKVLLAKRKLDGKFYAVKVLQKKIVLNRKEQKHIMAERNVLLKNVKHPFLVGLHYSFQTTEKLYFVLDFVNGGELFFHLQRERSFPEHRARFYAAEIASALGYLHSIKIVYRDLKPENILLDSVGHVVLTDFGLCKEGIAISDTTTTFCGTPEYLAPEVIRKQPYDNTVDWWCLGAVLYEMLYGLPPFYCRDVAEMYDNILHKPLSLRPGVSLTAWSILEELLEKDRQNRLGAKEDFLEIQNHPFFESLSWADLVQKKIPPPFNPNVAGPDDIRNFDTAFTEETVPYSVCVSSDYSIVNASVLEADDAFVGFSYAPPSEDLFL", "test": "Selectivity interaction (Kinase screening (Nanosyn)) EUB0000604a SGK3"}, "[6]": {"biological_target": "Ephrin type-A receptor 7 (Homo sapiens) (UniProt Q15375)", "sequence (Q15375 28-998 limits assumed)": "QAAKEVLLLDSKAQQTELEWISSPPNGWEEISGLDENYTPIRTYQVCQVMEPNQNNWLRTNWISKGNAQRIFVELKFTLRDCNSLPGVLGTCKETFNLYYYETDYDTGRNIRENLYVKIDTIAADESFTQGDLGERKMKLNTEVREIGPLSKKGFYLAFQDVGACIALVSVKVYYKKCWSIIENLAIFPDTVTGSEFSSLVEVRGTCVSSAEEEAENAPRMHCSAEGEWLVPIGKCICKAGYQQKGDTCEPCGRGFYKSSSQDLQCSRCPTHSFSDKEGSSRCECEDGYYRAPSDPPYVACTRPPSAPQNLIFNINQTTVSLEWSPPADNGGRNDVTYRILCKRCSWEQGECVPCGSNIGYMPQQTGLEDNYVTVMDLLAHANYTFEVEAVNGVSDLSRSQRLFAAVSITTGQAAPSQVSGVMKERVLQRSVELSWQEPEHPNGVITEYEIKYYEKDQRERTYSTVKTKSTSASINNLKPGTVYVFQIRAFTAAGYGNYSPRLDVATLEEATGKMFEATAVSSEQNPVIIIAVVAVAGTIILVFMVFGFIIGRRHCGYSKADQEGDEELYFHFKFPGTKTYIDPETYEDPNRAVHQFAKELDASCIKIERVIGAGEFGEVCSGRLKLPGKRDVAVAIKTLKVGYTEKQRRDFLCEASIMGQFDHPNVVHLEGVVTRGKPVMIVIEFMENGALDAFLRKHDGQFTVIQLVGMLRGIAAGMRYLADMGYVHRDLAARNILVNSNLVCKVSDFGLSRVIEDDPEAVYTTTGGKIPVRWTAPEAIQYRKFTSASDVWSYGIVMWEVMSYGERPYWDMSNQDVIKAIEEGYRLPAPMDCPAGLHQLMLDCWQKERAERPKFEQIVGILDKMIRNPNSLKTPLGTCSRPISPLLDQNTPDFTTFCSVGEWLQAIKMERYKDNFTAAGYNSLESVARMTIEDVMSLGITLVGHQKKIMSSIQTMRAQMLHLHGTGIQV", "test": "Selectivity interaction (ProQinase) EUB0000171b EPHA7"}, "[7]": {"biological_target": "Rho-associated protein kinase 2 (Homo sapiens, UniProt O75116)", "test": "Selectivity interaction (ActivX KiNativ screen (ex vivo kinase selectivity in human PBMCs)) EUB0001619a ROCK2", "type": "cell-based", "settings": "PBMC, at 1 µM"}, "[8]": {"biological_target": "Fibroblast growth factor receptor 2 (Homo sapiens) (UniProt P21802)", "sequence (P21802 22-821 limits assumed)": "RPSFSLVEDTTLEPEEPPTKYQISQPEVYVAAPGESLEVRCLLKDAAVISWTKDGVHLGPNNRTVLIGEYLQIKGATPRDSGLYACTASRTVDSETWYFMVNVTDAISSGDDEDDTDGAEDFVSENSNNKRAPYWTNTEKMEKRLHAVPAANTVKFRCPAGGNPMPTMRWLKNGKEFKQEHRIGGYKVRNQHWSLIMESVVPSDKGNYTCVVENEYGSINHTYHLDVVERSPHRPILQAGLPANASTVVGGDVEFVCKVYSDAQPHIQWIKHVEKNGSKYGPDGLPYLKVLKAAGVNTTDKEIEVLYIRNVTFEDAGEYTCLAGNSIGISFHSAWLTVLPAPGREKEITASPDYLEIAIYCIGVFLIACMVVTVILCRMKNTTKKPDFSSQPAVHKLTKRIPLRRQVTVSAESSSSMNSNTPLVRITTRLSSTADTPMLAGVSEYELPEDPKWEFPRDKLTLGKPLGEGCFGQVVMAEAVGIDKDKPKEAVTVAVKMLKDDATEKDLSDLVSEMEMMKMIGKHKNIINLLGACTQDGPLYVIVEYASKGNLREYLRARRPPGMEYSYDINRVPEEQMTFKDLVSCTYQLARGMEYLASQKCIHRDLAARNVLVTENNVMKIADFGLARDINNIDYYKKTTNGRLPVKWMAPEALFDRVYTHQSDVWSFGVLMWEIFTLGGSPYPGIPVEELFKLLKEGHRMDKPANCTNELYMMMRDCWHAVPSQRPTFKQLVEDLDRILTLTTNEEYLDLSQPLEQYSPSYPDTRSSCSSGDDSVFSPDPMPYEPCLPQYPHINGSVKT", "test": "Selectivity interaction (Kinase panel (DSF assay)) EUB0001558a FGFR2"}, "[9]": {"biological_target": "Serine/threonine-protein kinase N1 (Homo sapiens, UniProt Q16512)", "sequence (Q16512 2-942 limits assumed)": "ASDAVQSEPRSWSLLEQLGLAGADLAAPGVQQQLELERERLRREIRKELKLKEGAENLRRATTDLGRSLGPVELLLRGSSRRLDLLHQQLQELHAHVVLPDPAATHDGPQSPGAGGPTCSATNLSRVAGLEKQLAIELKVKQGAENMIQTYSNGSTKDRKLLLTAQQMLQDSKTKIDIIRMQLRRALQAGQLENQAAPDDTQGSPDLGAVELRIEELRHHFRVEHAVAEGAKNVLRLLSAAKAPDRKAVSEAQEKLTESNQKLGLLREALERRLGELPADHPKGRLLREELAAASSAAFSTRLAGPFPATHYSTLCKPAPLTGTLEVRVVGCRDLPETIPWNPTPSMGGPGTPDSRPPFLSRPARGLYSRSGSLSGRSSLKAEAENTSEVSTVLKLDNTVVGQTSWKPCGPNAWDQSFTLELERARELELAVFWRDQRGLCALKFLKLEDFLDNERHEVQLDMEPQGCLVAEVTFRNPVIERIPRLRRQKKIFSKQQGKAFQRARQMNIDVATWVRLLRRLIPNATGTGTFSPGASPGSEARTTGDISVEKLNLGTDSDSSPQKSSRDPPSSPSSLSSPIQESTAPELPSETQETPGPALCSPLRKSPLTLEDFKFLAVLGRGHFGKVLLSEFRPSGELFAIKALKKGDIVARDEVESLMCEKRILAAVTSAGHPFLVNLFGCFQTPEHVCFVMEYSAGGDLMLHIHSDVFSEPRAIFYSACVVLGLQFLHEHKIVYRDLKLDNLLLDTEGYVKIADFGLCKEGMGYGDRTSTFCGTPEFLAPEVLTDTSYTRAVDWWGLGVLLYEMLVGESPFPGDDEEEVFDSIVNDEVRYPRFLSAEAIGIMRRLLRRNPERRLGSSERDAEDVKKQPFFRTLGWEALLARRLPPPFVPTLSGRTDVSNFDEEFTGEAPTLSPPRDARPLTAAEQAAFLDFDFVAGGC", "test": "Selectivity interaction (KinomeScan (DiscoverX)) EUB0000655a PKN1", "settings": "at 10 µM"}},
  "data": [
    {"smiles": "COCC(=O)NC/C=C/c1ccc2ncnc(Nc3ccc(Oc4ccc(C)nc4)c(C)c3)c2c1", "note": "[CP-724714]", "values": [
      {"measurement": "% of control", "setting": "[1]", "result": 100, "unit": "%"}
    ]},
    {"smiles": "O=C(NOC[C@H](O)CO)c1ccc(F)c(F)c1Nc1ccc(I)cc1F", "values": [
      {"measurement": "% of control", "setting": "[2]", "result": 100, "unit": "%"},
      {"measurement": "% of control", "setting": "[3]", "result": 100, "unit": "%"}
    ]},
    {"smiles": "Cc1cc([C@@H](C)Nc2ccccc2C(=O)O)c2nc(N3CCOCC3)cc(=O)n2c1", "note": "[AZD-6482]", "values": [
      {"measurement": "% of control", "setting": "[4]", "result": 100, "unit": "%"}
    ]},
    {"smiles": "Cc1cnc(Nc2ccc(F)cc2Cl)nc1-c1c[nH]c(C(=O)N[C@H](CO)c2cccc(Cl)c2)c1", "values": [
      {"measurement": "% of inhibition", "setting": "[5]", "result": 2, "unit": "%"}
    ]},
    {"smiles": "C=CC(=O)Nc1cccc(C(=O)Nc2ccc(Nc3cc(-c4[nH]c(SC)nc4C)ccn3)cc2)c1", "values": [
      {"measurement": "% of control", "setting": "[6]; at 1 µM", "result": 93, "unit": "%"},
      {"measurement": "% of control", "setting": "[6]; at 5 µM", "result": 89, "unit": "%"}
    ]},
    {"smiles": "N#Cc1cccc(-c2c[nH]c3ncnc(N4CCOCC4)c23)c1", "values": [
      {"measurement": "% of inhibition", "setting": "[7]", "result": 2, "unit": "%"}
    ]},
    {"smiles": "CC(C)(O)[C@H](F)CN1Cc2cc(NC(=O)c3cnn4cccnc34)c(N3CCOCC3)cc2C1=O", "values": [
      {"measurement": "dTM", "setting": "[8]", "result": 1, "unit": "K"}
    ]},
    {"smiles": "CN(C)CCOc1ccc(-c2nc(-c3ccncc3)c(-c3ccc4c(c3)CC/C4=N\\O)[nH]2)cc1", "values": [
      {"measurement": "% of control", "setting": "[9]", "result": 92, "unit": "%"}
    ]}
  ]
}
